From patent US10000469B2, “Heat shock protein 70 (hsp-70) receptor ligands” (Duke University, priority 2014, dated 2018) come the findings set out here.

“Also recorded” adds a separate entry of the source.

The test system of one data set is RWPE1. Kind of data set: Cell proliferation, RWPE1. The class given is cell-based. The note with it: non tumorigenic RWPE1. The method, then:
(§1) Cell Proliferation: Cell proliferation was determined using a Hoechst stain (Sigma, St. Louis, Mo.) to quantify DNA. 5,000 cells of the designated cell line were plated in 96 well plates and treated the next day, designated as time point 0, with the indicated concentration of the specified compound maintained for the duration of the assay. At the indicated time points the media was removed and plated frozen at −80° C. Double distilled H2O was then added and the plates were incubated at 37° C. for 1 hour. After 1 hour the plates were frozen at −80° C. After freezing the plates were thawed and Hoechst stain was diluted 1:1000 in THE buffer (10 mM Tris, 2M NaCl, 1 mM Na2EDTA). The final fluorescence was measured on the Victor X2 plate reader at 355/460 nm, and cell proliferation was determined with the formula: % Cell Proliferation=100×(Sample fluorescence−background fluorescence)/(Control fluorescence−background fluorescence).

Another data set concerns MMTV-neu mice. Briefly: HS-72 in vivo efficacy study. The following applies: for tumor volume vs. no treatment: at 21 days, p<0.05. The arrangement: species or system mouse. On the procedure:
HS-72 in vivo Efficacy Studies: MMTV-neu mice, a HER2 overexpression breast cancer mouse model in which HER2 is under the transcriptional control of the mouse mammary tumor virus promoter/enhancer, were treated with the indicated doses and dosing schedule [Taneja et al., 2009]. All doses were delivered through IP injections using DMSO and their tumors were calipered once weekly. The mice were culled upon reaching tumor burden or if they expressed signs of toxicity as per MP1U standard protocol.

The subject of the next data set is Her2 and Akt. Kind of data set: Degradation assay (Western blot of client proteins). It counts as cell-based. The method, then:
Western Blotting: SDS-PAGE was carried out using Criterion™ Cell system using pre-casted 4-20% or 4-15% Criterion™ Tris-HCl gels (BioRad, Hercules, Calif.). For Western blotting gels were run at 200V for 1 hour using the PowerPac basic power supply (BioRad, Hercules, Calif.). Next, gels were transferred to nitrocellulose for blotting at 100V for 1 hour (Fisher Scientific, Waltham, Mass.). Nitrocellulose membranes were blocked with 5% dry non-fat milk in phosphate-buffered saline (PBS) with 0.01% Tween-20 for 1 hour at room temperature. Membranes were incubated with primary antibodies (1:1000 dilution) overnight at 4° C. The next day membranes were washed 3× in PBS-Tween, incubated for 1 hour at room temperature with secondary antibodies, and further washed 3× in PBS-Tween. ECL Plus Western blotting reagent (Pierce Biotechnology, Rockford, Ill.) was used to detect antibodies. GFP, Her2, Akt, Hsp70, Hsc70, Grp78, Grp75, and Hsp90 primary antibodies and all associated secondary antibodies were purchased from Cell Signaling Technology (Danvers, Mass.).
Degradation Assay: The specified cells were seeded overnight and then treated with the indicated concentration of compound for 24 hours. The cells were then harvested and subjected to analysis by Western blot.

The subject of another data set is caspase-3/7. Briefly: Caspase 3/7 assay in cancer cells. The class given is cell-based. The method, then:
Caspase 3/7 Assay: The Amplite™ Fluorimetric Caspase3/7 assay kit (AAT Bioquest, Sunnyvale, Calif.) was used per the manufacturer's instructions. Briefly, a fluorometric indicator, Ac-DEVD-AMC, was used to determine caspase activity. […] Cells were seeded at 60,000 cells/well in a 96 well plate and treated with compound for the indicated period of time. Diluted caspase 3/7 assay solution was added to each well and incubated at room temperature for 2 hours protected from light, upon which time fluorescence was measured on the Victor X2 plate reader (Perkin Elmer, Waltham, Mass.).

For another data set, the system named is MCF10A. Briefly: Cell proliferation, MCF10A. It counts as cell-based. The following applies: non tumorigenic MCF10A. On the procedure:
as §1

Data set [1] concerns LnCaP prostate cancer cell lines. Briefly: Cell proliferation, LNCaP. It counts as cell-based. The method, then: as §1
A short description of data set [2]: HS-72 PK in plasma, kidney and liver. It counts as in vivo, mice. The method, then: HS-72 PK: Wild-type mice were injected IP with HS-72 and sacrificed 5 minutes, 1 hour, 4 hours, 8 hours, and 24 hours post injection. Untreated animals were included as control and called 0 minutes. Each time point consisted of 3 animals. At the indicated time points liver, kidney, and blood was harvested from each animal. Whole blood was centrifuged and only the plasma was retained. Whole liver and kidneys were frozen and stored at −80° C. until processing. Before quantifying HS-72 in the plasma and tissue a standard curve was made using HS-72 and N-(1-methyl-1H-benzo[d]imidazol-2-yl)-1-(pyrazin-2-yl)piperidine-3-carboxamide (“HS-156”), as the internal standard. HS-72 and HS-156 were diluted in water and were further diluted 1:4 in acetonitrile. The resulting solution was then filtered through a 0.2 μm PTFE membrane (VWR, Radnor, Pa.). 15 uL of the solution was run through an Eclipse Plus C18 column (Agilent, Santa Clara, Calif.) and analyzed by an Agilent Ion Trap 6130 LC-MS (Agilent, Santa Clara, Calif.). The total ion chromatogram (TIC), extracted ion chromatogram (EIC), UV chromatogram, and mass spectra (MS) were obtained for each run. The area under the curve from the EIC for HS-72 at 364-366 and for HS-156 at 337 was determined. The EIC area ratio for HS-72 compared to HS-156 was calculated and this ratio was used to plot a standard curve based on the known concentrations of HS-72. The plasma samples were processed in the same manner as in the standard curve and analyzed by LC-MS. The resulting EIC ratios from HS-72 compared to HS-156 were then determined, which was used to calculate the concentration of HS-72 in the diluted sample. The concentration in solution of HS-72 was adjusted for the 1:4 dilution that occurs during sample preparation. The final concentration of HS-72 in plasma was calculated per mL of plasma. The liver and kidney samples were weighed and homogenized in tissue lysis buffer. The resulting homogenate was then processed in the same manner as the plasma samples. The resulting EIC ratios from HS-72 compared to HS-156 were then determined, which was used to calculate the concentration of HS-72 in the diluted sample. The concentration in solution of HS-72 was adjusted for the 1:4 dilution that occurs during sample preparation. Final concentration of HS-72 in the kidney and liver was calculated per gram of tissue using the weight of each tissue measured before sample processing.

[3] abbreviates: HS-72 in combination with HS-10.
The mark [4] stands for this setting: 24 hours, IP 20 mg/Kg, n=3, SEM.

With `CCCn1c(NC(=O)[C@H]2CCCN(c3cnccn3)C2)nc2ccccc21` [HS-72, (S)—N-(1-propyl-1H-benzo[d]imidazol-2-yl)-1-(pyrazin-2-yl)piperidine-3-carboxamide], the results for the cell proliferation result (in the data set on RWPE1; in the data set with MCF10A; in data set [1]) were “insensitive; also recorded: only inhibited at the highest concentration tested”, “insensitive; also recorded: continue to grow at all concentrations” and “inhibits proliferation”, respectively. The results for the “increase of median survival vs. no treatment” value with MMTV-neu mice (I.P. 20 mpk BiW) and with MMTV-neu mice (I.P. 20 mpk qd) were 6 days and 13 days, respectively. The “tumor volume vs. no treatment” value in the data set with MMTV-neu mice (I.P. 20 mpk BiW, 20 mg/kg) was “significant reduction”; in the data set on MMTV-neu mice (I.P. 20 mpk BiW, listed as HS72, 20 mg/kg) it was “significant decrease”. The Akt degradation result with Her2 and Akt (setting [3]) is “significant Akt degradation”. Also, the “levels of Her2” value in the data set with Her2 and Akt (setting [3]) is “completely abolished”. The “Akt and Her2 expression” value in the data set on Her2 and Akt (compound alone, BT474 breast cancer cells) is given as “dose dependent reduction”. In addition, the caspase activation result is reported as “reproducible across several cancer cell lines” in the data set on caspase-3/7 (6 hours and 24 hours, dose dependent); “inducing caspase activation in a dose dependent manner” with caspase-3/7 (various cancer cells). In addition, the plasma concentration in data set [2] (5 minutes post IP injection, 20 mg/Kg, n=3, SEM) was 70 ± 30 µM; in data set [2] (8 hours post IP injection, 20 mg/Kg, n=3, SEM), 2 ± 0.2 µM. The kidney concentration in data set [2] (5 minutes, IP 20 mg/Kg, n=3, SEM) worked out at 0.43 ± 0.08 µmol/g; in data set [2] (setting [4]), 0.02 ± 0.004 µmol/g. The same compound had a liver concentration (peak) in data set [2] (8 hours, IP 20 mg/Kg, n=3, SEM) of 2.26 ± 0.5 µmol/g. For the same compound, in data set [2] (setting [4]), the liver concentration is 0.51 ± 0.11 µmol/g. Also, the “plasma [HS-72] maintained” value in data set [2] (for at least 8 hours) is more than 20 µM. For the same compound, the concentration at 24 hours in data set [2] (mouse, plasma, 24 hours post IP injection, 20 mg/Kg, read-out: plasma concentration, trace amounts) was less than 10 µM. In data set [2] (mouse, plasma, IP 20 mg/Kg, n=3, SEM, read-out: T1/2 elimination from plasma (converted)), the half-life is 24 ± 6 min. The “metabolism in plasma, kidney and liver” value in data set [2] (parent MS ion of 365.2 Da detected intact) is recorded as “no evidence of rapid metabolism”.
